Laboratory results taken from ChEMBL document CHEMBL5241112, “Insights into the recent progress in the medicinal chemistry of pyranopyrimidine analogs” (RSC Med Chem, 2022).
≈ marks a conversion by molar mass, not a printed value.

Columns and labels:
[1] = tested on: MCF7; assay: cells; assay type: functional, cell-based; conditions: Homo sapiens, MCF7, 96 h
[2] = tested on: HCT-116; assay: Anticancer activity against human HCT-116 cells assessed as reduction in cell viability incubated for 96 hrs by MTT assay; assay type: functional, cell-based; conditions: HCT-116, 96 h
[3] = tested on: MCF7; assay: cells; conditions: Homo sapiens, MCF7, 48 h
[4] = tested on: HeLa; assay: Anticancer activity against human HeLa cells assessed as reduction in cell viability incubated for 48 hrs by MTT assay; assay type: functional, cell-based
[5] = Antioxidant activity assessed as NO radical scavenging activity; assay type: functional
[6] = Antioxidant activity assessed as H2O2 radical scavenging activity; assay type: functional
[7] = tested on: Escherichia coli; assay: Antibacterial activity against Escherichia coli assessed as bacterial growth inhibition by broth microdilution method; assay type: functional
[8] = tested on: Staphylococcus aureus; assay: Antibacterial activity against Staphylococcus aureus assessed as bacterial growth inhibition by broth microdilution method; assay type: functional
[9] = tested on: Pseudomonas aeruginosa; assay: Antibacterial activity against Pseudomonas aeruginosa assessed as bacterial growth inhibition by broth microdilution method; assay type: functional
[10] = tested on: Klebsiella pneumoniae; assay: Antibacterial activity against Klebsiella pneumoniae assessed as bacterial growth inhibition by broth microdilution method; assay type: functional
[11] = Antioxidant activity assessed as hydroxyl radical scavenging activity incubated for 5 mins by spectrophotometric analysis; assay type: functional; parameters: concentration or dose not given beside the values
[12] = species: Capra hircus; assay: Inhibition of goat lens AR at 100 uM incubated for 10 mins in presence of NADPH by spectroscopic analysis
[13] = Antioxidant activity assessed as DPPH radical scavenging activity incubated for 20 mins by spectrophotometric analysis; assay type: functional; parameters: concentration or dose not given beside the values
[14] = tested on: Pseudomonas aeruginosa; assay: Antimicrobial activity against Pseudomonas aeruginosa assessed as diameter of inhibition zone at 1 mg/ml incubated for 48 hrs by agar disk diffusion method; assay type: functional; conditions: read-out: DIZ
[15] = tested on: Escherichia coli; assay: Antimicrobial activity against Escherichia coli assessed as diameter of inhibition zone at 1 mg/ml incubated for 48 hrs by agar disk diffusion method; assay type: functional; conditions: read-out: DIZ
[16] = tested on: Bacillus cereus; assay: Antimicrobial activity against Bacillus cereus assessed as diameter of inhibition zone at 1 mg/ml incubated for 48 hrs by agar disk diffusion method; assay type: functional; conditions: read-out: DIZ
[17] = tested on: Klebsiella pneumoniae; assay: Antimicrobial activity against Klebsiella pneumoniae assessed as diameter of inhibition zone at 1 mg/ml incubated for 48 hrs by agar disk diffusion method; assay type: functional; conditions: read-out: DIZ
[18] = tested on: Penicillium chrysogenum; assay: Antifungal activity against Penicillium chrysogenum assessed as diameter of inhibition zone at 1 mg/ml incubated for 72 to 91 hrs by agar disk diffusion method; assay type: functional; conditions: time 72-91 hrs, read-out: DIZ
[19] = tested on: Aspergillus ochraceus; assay: Antifungal activity against Aspergillus ochraceus assessed as diameter of inhibition zone by disc diffusion method; assay type: functional
[20] = tested on: Penicillium chrysogenum; assay: Antifungal activity against Penicillium chrysogenum assessed as diameter of inhibition zone by disc diffusion method; assay type: functional
[21] = tested on: Staphylococcus aureus; assay: Antimicrobial activity against Staphylococcus aureus assessed as diameter of inhibition zone at 1 mg/ml incubated for 48 hrs by agar disk diffusion method; assay type: functional; conditions: read-out: DIZ
[22] = tested on: Aspergillus niger; assay: Antifungal activity against Aspergillus niger assessed as diameter of inhibition zone at 1 mg/ml incubated for 72 to 91 hrs by agar disk diffusion method; assay type: functional; conditions: time 72-91 hrs, read-out: DIZ
[23] = Antioxidant activity assessed as DPPH radical scavenging activity at 12 ug incubated for 30 mins by spectrophotometric analysis; assay type: functional; conditions: dose 12.0 µg

SMILES: O=c1[nH]c2c(c(=O)[nH]1)C(c1cccs1)c1[nH]c(=S)n(-c3ccccc3)c(=O)c1O2 (stereo unspecified)
- IC50 [1]: 1.28 µM
- IC50 [2]: 2.76 µM

SMILES: O=C1Nc2c(c(=O)oc3ccccc23)C(c2ccc(Cl)cc2)N1 (stereo unspecified)
- IC50 [3]: 33 µM
- IC50 [4]: 46 µM

SMILES: COc1cc(C2C(C#N)=C(N)Oc3cc(O)ccc32)ccc1O (stereo unspecified)
- IC50 [5]: 50.32 µg/mL (≈ 162 µM)
- IC50 [6]: 53.54 µg/mL (≈ 173 µM)

SMILES: CCO/C=N/C1=C(C#N)C(c2ccc(OC)cc2)c2c(n(C)c(=O)n(C)c2=O)O1 (stereo unspecified)
- MIC [7]: 6.25 µg/mL (≈ 15.8 µM)
- MIC [8]: 6.25 µg/mL (≈ 15.8 µM)
- MIC [9]: 6.25 µg/mL (≈ 15.8 µM)
- MIC [10]: 6.25 µg/mL (≈ 15.8 µM)

SMILES: O=c1[nH]c2c(c(=O)[nH]1)C(c1cccs1)c1[nH]c(=S)[nH]c(=S)c1O2 (stereo unspecified)
- IC50 [1]: 4.95 µM
- IC50 [2]: 2.76 µM

SMILES: COc1ccc(C2C(C#N)=C(N)Oc3cc(O)ccc32)cc1 (stereo unspecified)
- IC50 [6]: 53.54 µg/mL (≈ 182 µM)

SMILES: CCO/C=N/C1=C(C#N)C(c2ccccc2Cl)c2c(n(C)c(=O)n(C)c2=O)O1 (stereo unspecified)
- MIC [7]: 6.25 µg/mL (≈ 15.6 µM)
- MIC [8]: 6.25 µg/mL (≈ 15.6 µM)
- MIC [9]: 6.25 µg/mL (≈ 15.6 µM)
- MIC [10]: 6.25 µg/mL (≈ 15.6 µM)

SMILES: O=c1[nH]c2c(c(=O)[nH]1)Oc1c(c(=O)oc3ccccc13)C2c1ccc(Cl)cc1 (stereo unspecified)
- Activity [11]: 68.3%
- inhibition [12]: 47%
- Activity [13]: 71.5%

SMILES: COC(=O)C1=C(N)Oc2[nH]c(=S)[nH]c(=O)c2C1c1ccc(Cl)cc1 (stereo unspecified)
- zone of inhibition at 1000 µg/mL [14]: 13 mm
- zone of inhibition at 1000 µg/mL [15]: 7 mm
- zone of inhibition at 1000 µg/mL [16]: 10 mm
- zone of inhibition at 1000 µg/mL [17]: 3 mm
- zone of inhibition at 1000 µg/mL [18]: 0 mm

SMILES: COc1ccc(C2NC(=O)Nc3c2c(=O)oc2ccccc32)cc1OC (stereo unspecified)
- IC50 [3]: 38 µM
- IC50 [4]: 38 µM

SMILES: Nc1ncnc2c1Oc1[nH]c(=O)[nH]c(=O)c1C2c1cccs1 (stereo unspecified)
- IC50 [1]: 0.87 µM
- IC50 [2]: 7.25 µM

SMILES: O=C1Nc2c(c(=O)oc3ccccc23)C(c2ccccc2)N1 (stereo unspecified)
- IC50 [3]: 33 µM
- IC50 [4]: 46 µM

SMILES: O=c1[nH]c2c(c(=O)[nH]1)Oc1c(c(=O)oc3ccccc13)C2c1ccc([N+](=O)[O-])cc1 (stereo unspecified)
- Activity [11]: 54.3%
- inhibition [12]: 39%
- Activity [13]: 59.1%

SMILES: COc1ccc(C2c3c(N)ncnc3Oc3ccc4cc(Br)ccc4c32)cc1 (stereo unspecified)
- diameter of the inhibition zone (DIZ) [19]: 17 mm
- diameter of the inhibition zone (DIZ) [20]: 13 mm

SMILES: O=C1Nc2c(c(=O)oc3ccccc23)C(c2ccccc2O)N1 (stereo unspecified)
- IC50 [3]: 38 µM
- IC50 [4]: 38 µM

SMILES: O=C1Nc2c(c(=O)oc3ccccc23)C(c2ccc(Br)cc2)N1 (stereo unspecified)
- IC50 [3]: 38 µM
- IC50 [4]: 59 µM

SMILES: COC(=O)C1=C(N)Oc2[nH]c(=S)[nH]c(=O)c2C1c1ccccc1 (stereo unspecified)
- zone of inhibition at 1000 µg/mL [21]: 12 mm
- zone of inhibition at 1000 µg/mL [14]: 19 mm
- zone of inhibition at 1000 µg/mL [15]: 17 mm
- zone of inhibition at 1000 µg/mL [16]: 18 mm
- zone of inhibition at 1000 µg/mL [22]: 12 mm
- zone of inhibition at 1000 µg/mL [17]: 21 mm

SMILES: Nc1ncnc2c1C(c1ccc(Br)cc1)c1ccc(O)cc1O2 (stereo unspecified)
- IC50 [5]: 50.32 µg/mL (≈ 136 µM)

SMILES: Cc1n[nH]c2c1C(c1ccncc1)c1c([nH]c(=O)[nH]c1=O)O2 (stereo unspecified)
- Activity [23]: 59%

SMILES: O=C1Nc2c(c(=O)oc3ccccc23)C(c2ccc(O)cc2)N1 (stereo unspecified)
- IC50 [3]: 38 µM
- IC50 [4]: 38 µM

SMILES: N#CC1=C(N)Oc2cc(O)ccc2C1c1ccco1 (stereo unspecified)
- IC50 [5]: 50.32 µg/mL (≈ 198 µM)

SMILES: Brc1ccc2c3c(ccc2c1)Oc1ncn2ncnc2c1C3
- diameter of the inhibition zone (DIZ) [19]: 17 mm
- diameter of the inhibition zone (DIZ) [20]: 13 mm

SMILES: CONC1=C(C#N)Oc2[nH]c(=O)[nH]c(=O)c2C1c1cccs1 (stereo unspecified)
- IC50 [1]: 3.12 µM
- IC50 [2]: 6.38 µM

SMILES: COC(=O)C1=C(N)Oc2[nH]c(=S)[nH]c(=O)c2C1c1cccc(Cl)c1 (stereo unspecified)
- zone of inhibition at 1000 µg/mL [21]: 10 mm
- zone of inhibition at 1000 µg/mL [14]: 9 mm
- zone of inhibition at 1000 µg/mL [15]: 8 mm
- zone of inhibition at 1000 µg/mL [16]: 12 mm
- zone of inhibition at 1000 µg/mL [22]: 12 mm
- zone of inhibition at 1000 µg/mL [17]: 11 mm
